Source: patent US9545386B2, “Methods of treating infectious diseases” (SLIPPERY ROCK UNIVERSITY FOUNDATION, INC., priority 2007, dated 2017)

Columns and labels:
[1] = test system: Haemonchus contortus infective larvae; assay: In vitro bioassay of infective larvae, immobilization and lethal doses (eosin, Probit); assay type: cell-based; conditions: for 24 hr ID50 ± 95% confidence intervals / 48 hr ID50 ± 95% confidence intervals: immobilize 50%; for 24 hr ID50 ± 95% confidence intervals / 24 hr ID90 ± 95% confidence intervals / 24 hr LD50 ± 95% confidence intervals / 24 hr LD90 ± 95% confidence intervals: 24 hr in vitro; for 48 hr ID50 ± 95% confidence intervals / 48 hr ID90 ± 95% confidence intervals / 48 hr LD50 ± 95% confidence intervals / 48 hr LD90 ± 95% confidence intervals: 48 hr in vitro; for 24 hr ID90 ± 95% confidence intervals / 48 hr ID90 ± 95% confidence intervals: immobilize 90%; for 24 hr LD50 ± 95% confidence intervals / 48 hr LD50 ± 95% confidence intervals: kill 50%; for 24 hr LD90 ± 95% confidence intervals / 48 hr LD90 ± 95% confidence intervals: kill 90%
Protocol: (§1) Strongyloides stercoralis infective larvae were harvested from charcoal coprocultures in nematode saline solution. The larvae were supplied by the Parasitology Laboratory, Department of Pathobiology, University of Pennsylvania. The strain of larvae was a human strain of the parasitic nematode that had been maintained for over ten years in canines by daily prednisolone treatment (2 mg/kg per os, once daily. Parastrongyloides trichosuri and Ancylostoma caninum infective larvae were also supplied by the same source as for S. stercoralis. Haemonchus contortus infective larvae were harvested from charcoal coprocultures in nematode saline solution prepared from infected sheep feces obtained from Merck Parasites Laboratory.
(§2) The 24 hr 50% and 90% immobilization doses (ID50 and ID90), and 50% and 90% lethal doses (LD50 and LD90) of eryngial (mg/ml) were investigated in vitro using infective larvae of all four parasitic nematodes. Each species was exposed to a range of eryngial dilutions by adding known volumes of a homogeneous ‘wormy’ solution (infective larvae in nematode saline solution) to known volumes of an eryngial stock suspension (10 mg/ml of nematode saline solution). Each dilution, including the control (0 mg/ml eryngial), was prepared in triplicate and also contained eosin (0.01%, w/v), which was used as an indicator of mortality, and Triton X-100 (1.0%, v/v).
(§3) Using S. stercoralis, P. trichosuri, H. contortus and A. caninum infective larvae, eryngial dilutions, excluding the controls, ranged from 0.05 to 1.15 mg/ml; 0.01 to 1.0 mg/ml; 0.5 to 2.0 mg/ml; and 0.8 to 3.0 mg/ml, respectively. Sub-sample (10 μl) counts of larvae that were mobile, immobile but not stained and stained, were done at the start of each bioassay and at 24 hr intervals for two days. Each sub-sample contained approximately 50 infective larvae.
(§4) The 48-hr immobilization doses (ID50 and ID90) and lethal doses (LD50 and LD90) of eryngial and ivermectin also were investigated, using S. stercoralis and H. contortus infective larvae. Each bioassay was conducted as described hereinabove. Using S. stercoralis and H. contortus infective larvae, ivermectin dilutions (not including the controls) ranged from 0.03 to 0.3 mg/ml and from 0.009 to 0.1 mg/ml, respectively.
(§5) Probit analysis was used to determine 24 hr and 48 hr immobilization and lethal doses for eryngial and ivermectin, respectively.

[2] = test system: Strongyloides stercoralis infective larvae; assay: as above; assay type: cell-based; conditions: for 24 hr ID50 ± 95% confidence intervals / 48 hr ID50 ± 95% confidence intervals: immobilize 50%; for 24 hr ID50 ± 95% confidence intervals / 24 hr ID90 ± 95% confidence intervals / 24 hr LD50 ± 95% confidence intervals / 24 hr LD90 ± 95% confidence intervals: 24 hr in vitro; for 48 hr ID50 ± 95% confidence intervals / 48 hr ID90 ± 95% confidence intervals / 48 hr LD50 ± 95% confidence intervals / 48 hr LD90 ± 95% confidence intervals: 48 hr in vitro; for 24 hr ID90 ± 95% confidence intervals / 48 hr ID90 ± 95% confidence intervals: immobilize 90%; for 24 hr LD50 ± 95% confidence intervals / 48 hr LD50 ± 95% confidence intervals: kill 50%; for 24 hr LD90 ± 95% confidence intervals / 48 hr LD90 ± 95% confidence intervals: kill 90%
Protocol: as §1, §2, §3, §4, §5

[3] = test system: Ancylostoma caninum infective larvae; assay: as above; assay type: cell-based; conditions: for 24 hr ID50 ± 95% confidence intervals: immobilize 50%; for 24 hr ID90 ± 95% confidence intervals: immobilize 90%
Protocol: as §1, §2, §3, §5

[4] = test system: Parastrongyloides trichosuri infective larvae; assay: as above; assay type: cell-based; conditions: for 24 hr ID50 ± 95% confidence intervals / 24 hr ID90 ± 95% confidence intervals / 24 hr LD50 ± 95% confidence intervals / 24 hr LD90 ± 95% confidence intervals: P. trichosuri infective larvae, 24 hr in vitro; for 24 hr ID50 ± 95% confidence intervals: immobilize 50%; for 24 hr ID90 ± 95% confidence intervals: immobilize 90%; for 24 hr LD50 ± 95% confidence intervals: kill 50%; for 24 hr LD90 ± 95% confidence intervals: kill 90%
Protocol: as §1, §2, §3, §5

T. avium trypomastigotes = assay: Short-term behavioral study (swimming behavior and maneuverability); assay type: cell-based, Trypanosoma avium; conditions: 75 μl eryngial (1%) and Triton X-100 (0.04%) added to 75 μl T. avium; observed at 15-minute intervals for 1 hr
Protocol: A short-term behavioral study also was conducted by adding 75 μl of eryngial (1%) and Triton X-100 (0.04%) to 75 μl of L.N.S. with T. avium (1.0×10^5 trypomastigotes/ml). The swimming behavior and maneuverability of the organisms were observed microscopically in triplicate samples at 15-minute intervals for 1 hr. This was recorded with a digital video camera.

[5] = H. contortus infective larvae, 48 hr, eryngial vs ivermectin
[6] = H. contortus infective larvae, listed as eryngial
[7] = S. stercoralis infective larvae
[8] = S. stercoralis infective larvae, listed as eryngial
[9] = S. stercoralis, eryngial vs ivermectin
[10] = A. caninum infective larvae, 24 hr in vitro
[11] = A. caninum infective larvae, 24 hr in vitro, listed as eryngial

CCCCCCCCC/C=C/C=O [Eryngial, trans-2-dodecenal]
increase in the dose required to immobilize 50% ([1]; 24 hr ID50, H. contortus relative to P. trichosuri): 10.2 fold | times more effective than ivermectin at eliciting 90% mortality [1, 5]: 2.9 times | times more potent at killing 50% than ivermectin [1, 5]: 3.7 times | 24 hr ID50 ± 95% confidence intervals ([1]; H. contortus infective larvae): 0.132 (0.078-0.186) mg/ml | 24 hr ID50 ± 95% confidence intervals [1, 6]: 0.132 mg/mL | 48 hr ID50 ± 95% confidence intervals ([1]; H. contortus infective larvae): 0.313 (0.143-0.453) mg/ml | 48 hr ID50 ± 95% confidence intervals [1, 6]: 0.313 mg/mL | 24 hr ID90 ± 95% confidence intervals ([1]; H. contortus infective larvae): 0.782 (0.641-0.998) mg/ml | 24 hr ID90 ± 95% confidence intervals [1, 6]: 0.782 mg/mL | 48 hr ID90 ± 95% confidence intervals ([1]; H. contortus infective larvae): 0.761 (0.530-1.488) mg/ml | 48 hr ID90 ± 95% confidence intervals [1, 6]: 0.761 mg/mL | 24 hr LD50 ± 95% confidence intervals ([1]; H. contortus infective larvae): 1.793 (1.516-2.558) mg/ml | 24 hr LD50 ± 95% confidence intervals [1, 6]: 1.793 mg/mL | 48 hr LD50 ± 95% confidence intervals ([1]; H. contortus infective larvae): 1.361 (1.284-1.449) mg/ml | 48 hr LD50 ± 95% confidence intervals [1, 6]: 1.361 mg/mL | 24 hr LD90 ± 95% confidence intervals ([1]; H. contortus infective larvae): 2.765 (2.010-5.915) mg/ml | 24 hr LD90 ± 95% confidence intervals [1, 6]: 2.765 mg/mL | 48 hr LD90 ± 95% confidence intervals ([1]; H. contortus infective larvae): 2.360 (2.109-2.768) mg/ml | 48 hr LD90 ± 95% confidence intervals [1, 6]: 2.360 mg/mL | decrease in the 50% immobilization dose ([2]; 24 hr ID50, S. stercoralis compared with A. caninum): 9.4 fold | decrease in the 50% immobilization dose ([2]; 24 hr ID50, S. stercoralis compared with H. contortus): 2.3 fold | less sensitive to eryngial than P. trichosuri ([2]; 24 hr ID50, S. stercoralis relative to P. trichosuri): 4.5 fold | increased sensitivity to eryngial (90% immobilization) ([2]; 24 hr ID90, S. stercoralis over A. caninum): 10.7 fold | increase in sensitivity to eryngial (50% mortality doses) ([2]; 24 hr LD50, S. stercoralis than A. caninum): 7.2 fold | increase in sensitivity to eryngial (50% mortality doses) ([2]; 24 hr LD50, S. stercoralis than H. contortus): 21.1 fold | increased sensitivity to eryngial (90% mortality doses) ([2]; 24 hr LD90, S. stercoralis over A. caninum): 8.2 fold | increased sensitivity to eryngial (90% mortality doses) ([2]; 24 hr LD90, S. stercoralis over H. contortus): 19.3 | times more effective than ivermectin (48 hr ID90) ([2]; S. stercoralis L3 larvae, eryngial vs ivermectin): 3.9 times | times more potent than ivermectin (48 hr ID50) ([2]; S. stercoralis infective larvae, eryngial vs ivermectin): 2.5 times | 24 hr ID50 ± 95% confidence intervals [2, 7]: 0.058 (0.054-0.061) mg/ml | 24 hr ID50 ± 95% confidence intervals [2, 8]: 0.058 mg/mL | 48 hr ID50 ± 95% confidence intervals [2, 7]: 0.054 (0.047-0.061) mg/ml | 48 hr ID50 ± 95% confidence intervals [2, 8]: 0.054 mg/mL | 24 hr ID90 ± 95% confidence intervals [2, 7]: 0.081 (0.076-0.088) mg/ml | 24 hr ID90 ± 95% confidence intervals [2, 8]: 0.081 mg/mL | 48 hr ID90 ± 95% confidence intervals [2, 7]: 0.077 (0.066-0.101) mg/ml | 48 hr ID90 ± 95% confidence intervals [2, 8]: 0.077 mg/mL | 24 hr LD50 ± 95% confidence intervals [2, 7]: 0.085 (0.073-0.102) mg/ml | 24 hr LD50 ± 95% confidence intervals [2, 8]: 0.085 mg/mL | 48 hr LD50 ± 95% confidence intervals [2, 7]: 0.069 (0.058-0.085) mg/ml | 48 hr LD50 ± 95% confidence intervals [2, 8]: 0.069 mg/mL | 24 hr LD90 ± 95% confidence intervals [2, 7]: 0.143 (0.115-0.245) mg/ml | 24 hr LD90 ± 95% confidence intervals [2, 8]: 0.143 mg/mL | 48 hr LD90 ± 95% confidence intervals [2, 7]: 0.105 (0.085-0.174) mg/ml | 48 hr LD90 ± 95% confidence intervals [2, 8]: 0.105 mg/mL | times more effective than ivermectin (48 hr LD50) [2, 9]: 4.4 times | times more potent than ivermectin (48 hr LD90) [2, 9]: 9.9 times | increase in the dose required to immobilize 50% ([3]; 24 hr ID50, A. caninum relative to P. trichosuri): 41.9 fold | 24 hr ID50 ± 95% confidence intervals [3, 10]: 0.545 (0.440-0.641) mg/ml | 24 hr ID50 ± 95% confidence intervals [3, 11]: 0.545 mg/mL | 24 hr ID90 ± 95% confidence intervals [3, 10]: 0.867 (0.717-1.445) mg/ml | 24 hr ID90 ± 95% confidence intervals [3, 11]: 0.867 mg/mL | 24 hr LD50 ± 95% confidence intervals ([3]; A. caninum infective larvae, kill 50%, 24 hr in vitro): 0.608 (0.429-0.765) mg/ml | 24 hr LD90 ± 95% confidence intervals ([3]; A. caninum infective larvae, kill 90%, 24 hr in vitro): 1.178 (0.913-2.100) mg/ml | increased sensitivity to eryngial (90% immobilization) ([4]; 24 hr ID90, P. trichosuri compared to A. caninum): 9.4 fold | increased sensitivity to eryngial (90% immobilization) ([4]; 24 hr ID90, P. trichosuri over H. contortus): 8.5 fold | increase in sensitivity to eryngial (50% mortality doses) ([4]; 24 hr LD50, P. trichosuri over A. caninum): 5.8 fold | increase in sensitivity to eryngial (50% mortality doses) ([4]; 24 hr LD50, P. trichosuri over H. contortus): 17.1 fold | increased sensitivity to eryngial (90% mortality doses) ([4]; 24 hr LD90, P. trichosuri over A. caninum): 4 fold | increased sensitivity to eryngial (90% mortality doses) ([4]; 24 hr LD90, P. trichosuri over H. contortus): 9.3 fold | 24 hr ID50 ± 95% confidence intervals [4]: 0.013 (0.007-0.030) mg/ml | 24 hr ID50 ± 95% confidence intervals ([4]; listed as eryngial): 0.013 mg/mL | 24 hr ID90 ± 95% confidence intervals [4]: 0.092 (0.051-0.201) mg/ml | 24 hr ID90 ± 95% confidence intervals ([4]; listed as eryngial): 0.092 mg/mL | 24 hr LD50 ± 95% confidence intervals [4]: 0.105 (0.084-0.133) mg/ml | 24 hr LD50 ± 95% confidence intervals ([4]; listed as eryngial): 0.105 mg/mL | 24 hr LD90 ± 95% confidence intervals [4]: 0.297 (0.214-0.515) mg/ml | 24 hr LD90 ± 95% confidence intervals ([4]; listed as eryngial): 0.297 mg/mL | swimming behavior and maneuverability of trypomastigotes (T. avium trypomastigotes): movement was completely stopped
